Assay results reported in US11065194B2, “Cosmetic use of extracts of Salvia miltiorrhiza roots, special extracts of Salvia miltiorrhiza roots and cosmetic compositions containing such extracts” (SOCIETE INDUSTRIELLE LIMOUSINE D'APPLICATION BIOLOGIQUE, priority 2018, dated 2021).
Marks after values point to notes of the source that are not given here.

Assays:
[1] = target: T1, TRPV1 receptors of human sensory neurons (Homo sapiens, UniProt Q8NER1); assay: Inhibition of TRPV1 receptors of sensory neurons activated by capsaicin (cytoplasmic calcium, Fluo-4 probe); type: cell-based; conditions: tested at 10 μM
T1 construct: endogenous in cells; host or cells: human sensory neurons derived from hiPS cells, in co-culture with normal human keratinocytes
Description: The aim of this study is to evaluate the capacity of an extract of Salvia miltiorrhiza roots to inhibit the activity of TRPV1 (Transient receptor potential vanilloid 1) receptors of human sensory neurons that play a major role in the detection and transmission of sensations of pain and itching to the central nervous system.
This study was performed on a model of human sensory neurons derived from hiPS cells (human-induced Pluripotent Stem Cells) in co-culture with human keratinocytes. The activation of TRPV1 receptors is characterized by a massive entry of calcium into the cytoplasm of the sensory neurons that can be captured by a fluorescent probe and analyzed by epifluorescence microscopy.
The operating protocol is described below: • D0, culture of sensory neurons derived from hiPS cells: • The hiPS (human-induced Pluripotent Stem) cells are seeded in a culture medium and incubated at 37° C. • D14, placed in co-culture with normal human keratinocytes: • Some human keratinocytes are seeded onto the carpet of sensory neurons. […] This entry of calcium is captured by the Fluo-4 probe, causing an increase in the level of fluorescence in the neurons. The greater the increase in the level of fluorescence, the more the TRPV1 receptors are activated.
The average of the increase in the level of fluorescence was compared in percentage terms to the non-activated control condition.

COX-2 = assay: Synthesis of COX-2 on SILABSKIN REs treated with fine particles (PM), immunohistochemistry; type: cell-based, human; conditions: tested at 1 μM
Excerpt: The purpose of this study is to evaluate the capacity of an extract of Salvia miltiorrhiza roots to limit the synthesis of cyclo-oxygenase 2 (COX-2) in the event of an inflammation caused by a pollutant (fine particles: PM).
The expression of COX-2 has been evaluated by immunohistochemistry on SILABSKIN® REs subjected to repeated treatments with fine particles (PM) in order to mimic a polluted environment.
Human keratinocytes were cultivated in a specific culture medium • D0: • Normal human keratinocytes were seeded on inserts then incubated at 37° C. in an atmosphere containing 5% CO2. • D2 to D13: • The culture medium was changed every 2 days. • D14 and D15, treatments of SILABSKIN® REs: • SILABSKIN® REs were treated topically with a solution of fine particles (PM), with or without the presence of the extract of Example 1 at 0.25% (V/V), or with capsazepine at […]. • D16: • The SILABSKIN® REs were recovered, fixed, dehydrated and embedded in paraffin. Sections (4 μm) were then cut using a microtome (RM2125RT, Leica).
B. Analysis of the Expression of COX-2 by Immunohistochemical Marking • Removal of paraffin with xylene • Unmasking the antigenic sites • Saturation • Primary antibody: rabbit monoclonal anti-COX-2 antibody • Secondary antibody: coupled Alexa Fluor® 488 […] antibody
The expression of COX-2 was proportional to the intensity of the green fluorescence present on the SILABSKIN® REs. A quantitative analysis of the images was performed with the aid of Matlab® version R2012b (MathWorks) software. The results were expressed in arbitrary units (UA).

PGE2 = assay: Secretion of PGE2 by human keratinocytes treated with fine particles (PM), ELISA; type: cell-based; conditions: tested at 0.5 μM
Description: The purpose of this study is to evaluate the capacity of an extract of Salvia miltiorrhiza roots to limit the secretion of prostaglandins E2 (PGE2) in the event of an inflammation caused by a pollutant (fine particles: PM).
This study was performed by ELISA assay on the culture supernatant of human keratinocytes subjected to a treatment with fine particles (PM) mimicking a polluted environment.
The operating protocol of the study is described below. • D0:
Normal human keratinocytes were seeded in a culture medium and incubated at 37° C. in an atmosphere containing 5% CO2. • D2: • Pre-treatment:
The keratinocytes were pretreated with or without the extract of Example 1 at 0.025% and 0.05% (V/V) or with capsazepine at 0.5 μM (inhibitor of TRPV1). The cells were then incubated for 30 minutes at 37° C. in an atmosphere containing 5% CO2. • Treatment with fine particles (PM):
The keratinocytes were treated with a solution of particles.
The cells were then incubated for 24 hours at 37° C. in an atmosphere containing 5% CO2. • D3, recovery of supernatants:
The culture supernatants were recovered and the PGE2s were assayed using an ELISA Kit (Enzo Life Sciences).
The test of Study II.2 on the secretion of PGE2 was performed on the extract and on Fraction A.

T1 sequence (Q8NER1 whole entry): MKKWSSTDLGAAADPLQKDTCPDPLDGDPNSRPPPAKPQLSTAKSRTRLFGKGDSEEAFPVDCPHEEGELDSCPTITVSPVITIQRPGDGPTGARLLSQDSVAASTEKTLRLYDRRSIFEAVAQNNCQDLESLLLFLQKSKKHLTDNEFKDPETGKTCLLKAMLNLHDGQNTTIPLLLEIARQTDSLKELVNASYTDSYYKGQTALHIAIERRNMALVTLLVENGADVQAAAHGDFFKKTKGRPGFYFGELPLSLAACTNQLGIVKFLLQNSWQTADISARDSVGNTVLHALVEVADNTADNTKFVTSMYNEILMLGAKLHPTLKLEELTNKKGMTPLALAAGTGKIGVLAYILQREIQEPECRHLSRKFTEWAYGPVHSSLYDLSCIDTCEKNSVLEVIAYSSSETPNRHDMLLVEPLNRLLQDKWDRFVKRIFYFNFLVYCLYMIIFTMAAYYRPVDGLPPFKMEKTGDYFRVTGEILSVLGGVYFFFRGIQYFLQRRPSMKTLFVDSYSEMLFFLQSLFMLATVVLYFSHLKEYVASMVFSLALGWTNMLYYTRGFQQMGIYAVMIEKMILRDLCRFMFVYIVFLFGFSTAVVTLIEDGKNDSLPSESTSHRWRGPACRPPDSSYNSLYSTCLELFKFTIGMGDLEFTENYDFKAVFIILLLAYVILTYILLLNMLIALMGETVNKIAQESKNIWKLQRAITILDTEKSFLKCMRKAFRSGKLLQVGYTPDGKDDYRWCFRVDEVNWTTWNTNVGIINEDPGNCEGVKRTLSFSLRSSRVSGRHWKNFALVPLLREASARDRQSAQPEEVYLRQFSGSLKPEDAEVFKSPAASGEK

Q: `Oc1cc2c(cc1O)CN(C(=S)NCCc1ccc(Cl)cc1)CCC2` [Capsazepine, capsazepine] was tested. Which inhibition at 10 µM ([1]; capsaicin 10 μM, read-out: Inhibition of TRPV1 receptors/activated control neurons) did it give?
A: 199%

Q: And the “Mobilization of cytoplasmic calcium” value ([1]; neurons activated by capsaicin 10 μM, non-activated control = 100)?
A: 131*** %

Q: What about the “Inhibition of the PM-caused increase in expression of COX-2” value (COX-2) of the same compound?
A: 38%

Q: What about the “Synthesis of COX-2/polluted control” value (COX-2) of the same compound?
A: −38%

Q: What about the “Synthesis of COX-2” value (COX-2; polluted SILABSKIN REs (PM)) of the same compound?
A: 659* ×10^3 UA

Q: And the inhibition at 0.5 µM (PGE2; Homo sapiens, Keratinocyte, read-out: Inhibition of the PM-caused increase in secretion of PGE2)?
A: 78%

Q: And the “PGE2 Content/PM-treated control” value (PGE2)?
A: −78%

Q: What about the “PGE2 Content” value (PGE2; keratinocytes treated with PMs) of the same compound?
A: 433* pg/mg of proteins
